Data from patent publication US20250250230A1, “HETEROCYCLIC COMPOUND” (TAKEDA PHARMACEUTICAL COMPANY LIMITED, priority 2022, published 2025).

Target: T1, human orexin type 2 receptor (Homo sapiens, UniProt O43614)
T1 construct: expressed in transfected cells
T1 sequence (O43614 1-444): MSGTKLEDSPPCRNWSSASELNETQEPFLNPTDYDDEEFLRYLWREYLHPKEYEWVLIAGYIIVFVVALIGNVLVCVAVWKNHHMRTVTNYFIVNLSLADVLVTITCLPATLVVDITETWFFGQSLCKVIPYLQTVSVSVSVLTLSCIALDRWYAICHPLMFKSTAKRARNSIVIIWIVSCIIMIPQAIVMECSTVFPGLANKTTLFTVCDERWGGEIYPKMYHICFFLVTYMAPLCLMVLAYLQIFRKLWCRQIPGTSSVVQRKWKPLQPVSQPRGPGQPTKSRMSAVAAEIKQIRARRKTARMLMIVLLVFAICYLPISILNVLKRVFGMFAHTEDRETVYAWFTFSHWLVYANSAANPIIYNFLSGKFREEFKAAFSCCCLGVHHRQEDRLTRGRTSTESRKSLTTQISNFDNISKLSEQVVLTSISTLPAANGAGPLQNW
Assay: Measurement of orexin type 2 receptor agonist activity (calcium fluorescence, Fluo-4 AM, FDSS)
Format: cell-based
Settings: test compound 3 μM; CHO cells expressing human OX2 receptor; DMSO = 0%, orexin A (human) = 100%
Text: To obtain a cell clone stably expressing human orexin type 2 receptor, human orexin type 2 receptor cDNA was inserted into pcDNA3.1(+) plasmid vector (Invitrogen), and a plasmid DNA for expression of human orexin type 2 receptor (pcDNA3.1(+)/hOX2R) was cloned. The plasmid DNA was introduced into CHO-K1 cell by an electroporation method, and human orexin type 2 receptor expressing clone cells were obtained by limiting dilution method by using G418 drug resistance as a selection marker.
CHO cells forcibly expressing human OX2 receptor were seeded in each well of 384 well black transparent bottom plate (BD Falcon) at 10,000 cells/well, and cultured for one day in a 5% CO2 incubator at 37° C. After removal of the medium in the cell plate, assay buffer A containing a calcium indicator (HBSS (Thermo Fisher Scientific), 20 mM HEPES (Thermo Fisher Scientific), 0.1% BSA (Sigma-Aldrich), 2.5 μg/mL Fluo-4 AM (DOJINDO Chemical), 0.08% Pluronic F127 (DOJINDO Chemical), 1.25 mM probenecid (DOJINDO Chemical)) was added at 30 μL/well. The plate was stood for 30 min in a 5% CO2 incubator at 37° C., and further stood at room temperature for 30 min. A test compound prepared by diluting with assay buffer B (HBSS, 20 mM HEPES, 0.1% BSA) was added at 10 μL/well, and the fluorescence value was measured by FDSSμCELL (Hamamatsu Photonics K.K.) every one sec for 1 min, and thereafter every two sec for […]. The activity (%) of the test compound was calculated assuming that variation in the fluorescence value when DMSO was added instead of the test compound was 0%, and variation in the fluorescence value when orexin A (human) (PEPTIDE INSTITUTE, INC.) was added at the final concentration of 10 nM was 100%.

| Compound | OX2R agonist activity (3 μM, %) [%] |
| --- | --- |
| CS(=O)(=O)NC1CCN(C(=O)C2CC2c2ccc(F)cc2-c2ccccc2F)C1 (racemic) [Example 208, a mixture of rac-N-{(3R)-1-[(1R,2R)-2-(2′,5-difluoro[1,1′-biphenyl]-2-yl)cyclopropane-1-carbonyl]pyrrolidin-3-yl}methanesulfonamide and rac-N-{(3S)-1-[(1R,2R)-2-(2′,5-difluoro[1,1′-biphenyl]-2-yl)cyclopropane-1-carbonyl]pyrrolidin-3-yl}methanesulfonamide] | 78 |
| CCS(=O)(=O)NC(C)[C@@H]1[C@H](F)CN1C(=O)[C@@H]1C[C@@]1(F)c1ccccc1-c1c(F)cccc1F (stereo partly drawn) [Example 416, N-[(1R)-1-{(2R,3R)-1-[(1S,2S)-2-(2′,6′-difluoro[1,1′-biphenyl]-2-yl)-2-fluorocyclopropane-1-carbonyl]-3-fluoroazetidin-2-yl}ethyl]ethanesulfonamide, or N-[(1S)-1-{(2R,3R)-1-[(1S,2S)-2-(2′,6′-difluoro[1,1′-biphenyl]-2-yl)-2-fluorocyclopropane-1-carbonyl]-3-fluoroazetidin-2-yl}ethyl]ethanesulfonamide] | 97 |
| CS(=O)(=O)NC1CN(C(=O)[C@@H]2C[C@@]2(F)c2ccccc2-c2c(F)cccc2F)CC1(F)F (stereo partly drawn) [Example 331, N-{(3R)-1-[(1S,2S)-2-(2′,6′-difluoro[1,1′-biphenyl]-2-yl)-2-fluorocyclopropane-1-carbonyl]-4,4-difluoropyrrolidin-3-yl}methanesulfonamide, or N-{(3S)-1-[(1S,2S)-2-(2′,6′-difluoro[1,1′-biphenyl]-2-yl)-2-fluorocyclopropane-1-carbonyl]-4,4-difluoropyrrolidin-3-yl}methanesulfonamide] | 96 |
| CS(=O)(=O)NC12CCC1CN(C(=O)C1CC1c1ccccc1-c1c(F)cccc1F)C2 (stereo not drawn) [Example 273, N-{3-[2-(2′,6′-difluoro[1,1′-biphenyl]-2-yl)cyclopropane-1-carbonyl]-3-azabicyclo[3.1.0]hexan-1-yl}methanesulfonamide optical isomer] | 98 |
| CC(NS(C)(=O)=O)[C@@H]1[C@H](F)CN1C(=O)[C@@H]1C[C@@]1(F)c1ccccc1-c1c(F)cccc1F (stereo partly drawn) [Example 415, N-[(1R)-1-{(2R,3R)-1-[(1S,2S)-2-(2′,6′-difluoro[1,1′-biphenyl]-2-yl)-2-fluorocyclopropane-1-carbonyl]-3-fluoroazetidin-2-yl}ethyl]methanesulfonamide, or N-[(1S)-1-{(2R,3R)-1-[(1S,2S)-2-(2′,6′-difluoro[1,1′-biphenyl]-2-yl)-2-fluorocyclopropane-1-carbonyl]-3-fluoroazetidin-2-yl}ethyl]methanesulfonamide] | 96 |
| CN(C)S(=O)(=O)N[C@H]1CCCN(C(=O)[C@@H]2C[C@H]2c2ccccc2-c2c(F)cccc2F)C1 [Example 302, N′-{(3S)-1-[(1R,2R)-2-(2′,6′-difluoro[1,1′-biphenyl]-2-yl)cyclopropane-1-carbonyl]piperidin-3-yl}-N,N-dimethylsulfuric diamide] | 97 |
| CC1(C(=O)N2CCC2CNS(C)(=O)=O)CC1c1ccccc1-c1c(F)cccc1F (stereo not drawn) [Example 327, N-({1-[2-(2′,6′-difluoro[1,1′-biphenyl]-2-yl)-1-methylcyclopropane-1-carbonyl]azetidin-2-yl}methyl)methanesulfonamide optical isomer] | 100 |
| COCC1(NS(C)(=O)=O)CCN(C(=O)[C@@H]2C[C@@]2(F)c2ccccc2-c2c(F)cccc2F)C1 (stereo partly drawn) [Example 373, N-[(3R)-1-[(1S,2S)-2-(2′,6′-difluoro[1,1′-biphenyl]-2-yl)-2-fluorocyclopropane-1-carbonyl]-3-(methoxymethyl)pyrrolidin-3-yl]methanesulfonamide, or N-[(3S)-1-[(1S,2S)-2-(2′,6′-difluoro[1,1′-biphenyl]-2-yl)-2-fluorocyclopropane-1-carbonyl]-3-(methoxymethyl)pyrrolidin-3-yl]methanesulfonamide] | 95 |
| CS(=O)(=O)NC1CCCN(C(=O)C2CC2c2cccc(F)c2-c2ccccc2F)CC1 (racemic) [Example 106, a mixture of rac-N-{(4R)-1-[(1R,2R)-2-(2′,6-difluoro[1,1′-biphenyl]-2-yl)cyclopropane-1-carbonyl]azepan-4-yl}methanesulfonamide and rac-N-{(4S)-1-[(1R,2R)-2-(2′,6-difluoro[1,1′-biphenyl]-2-yl)cyclopropane-1-carbonyl]azepan-4-yl}methanesulfonamide] | 63 |
| CCS(=O)(=O)NC(C)[C@H]1CCN1C(=O)[C@@H]1C[C@H]1c1ccccc1-c1c(F)cccc1F (stereo partly drawn) [Example 361, N-[(1R)-1-{(2R)-1-[(1R,2R)-2-(2′,6′-difluoro[1,1′-biphenyl]-2-yl)cyclopropane-1-carbonyl]azetidin-2-yl}ethyl]ethanesulfonamide, or N-[(1S)-1-{(2R)-1-[(1R,2R)-2-(2′,6′-difluoro[1,1′-biphenyl]-2-yl)cyclopropane-1-carbonyl]azetidin-2-yl}ethyl]ethanesulfonamide] | 90 |
| C[C@@H]1CN(C(=O)[C@@H]2C[C@H]2c2ccccc2-c2c(F)cccc2F)C[C@H]1NS(C)(=O)=O [Example 264, N-{(3S,4R)-1-[(1R,2R)-2-(2′,6′-difluoro[1,1′-biphenyl]-2-yl)cyclopropane-1-carbonyl]-4-methylpyrrolidin-3-yl}methanesulfonamide] | 97 |
| CS(=O)(=O)N[C@@H]1CN(C(=O)[C@@H]2C[C@@]2(F)c2ccccc2-c2c(F)cccc2F)CCC1(F)F [Example 333, N-{(3R)-1-[(1S,2S)-2-(2′,6′-difluoro[1,1′-biphenyl]-2-yl)-2-fluorocyclopropane-1-carbonyl]-4,4-difluoropiperidin-3-yl}methanesulfonamide] | 99 |
| CS(=O)(=O)NC[C@H]1[C@H](CO)CN1C(=O)[C@@H]1C[C@@]1(F)c1ccccc1-c1c(F)cccc1F [Example 391, N-{[(2R,3R)-1-[(1S,2S)-2-(2′,6′-difluoro[1,1′-biphenyl]-2-yl)-2-fluorocyclopropane-1-carbonyl]-3-(hydroxymethyl)azetidin-2-yl]methyl}methanesulfonamide] | 97 |
| CNS(=O)(=O)NC[C@@H]1[C@H](F)CN1C(=O)[C@@H]1C[C@@]1(F)c1ccc(Cl)cc1-c1c(F)cccc1F [Example 443, N-({(2R,3R)-1-[(1S,2S)-2-(5-chloro-2′,6′-difluoro[1,1′-biphenyl]-2-yl)-2-fluorocyclopropane-1-carbonyl]-3-fluoroazetidin-2-yl}methyl)-N′-methylsulfuric diamide] | 100 |
| CS(=O)(=O)N[C@H]1CCN(C(=O)C2(C#N)CC2c2ccccc2-c2c(F)cccc2F)C1 (mixture of isomers) [Example 316, a mixture of rac-N-{(3S)-1-[(1R,2S)-1-cyano-2-(2′,6′-difluoro[1,1′-biphenyl]-2-yl)cyclopropane-1-carbonyl]pyrrolidin-3-yl}methanesulfonamide and N-{(3S)-1-[(1S,2R)-1-cyano-2-(2′,6′-difluoro[1,1′-biphenyl]-2-yl)cyclopropane-1-carbonyl]pyrrolidin-3-yl}methanesulfonamide] | 88 |
| CN(C)S(=O)(=O)NC[C@@H]1CCN1C(=O)[C@@H]1C[C@H]1c1ccccc1-c1c(F)cccc1F [Example 259, N′-({(2S)-1-[(1R,2R)-2-(2′,6′-difluoro[1,1′-biphenyl]-2-yl)cyclopropane-1-carbonyl]azetidin-2-yl}methyl)-N,N-dimethylsulfuric Diamide] | 98 |
| CS(=O)(=O)NC[C@@H]1CCN1C(=O)[C@@H]1C[C@H]1c1ccccc1-c1c(F)cccc1F [Example 355, N-({(2S)-1-[(1R,2R)-2-(2′,6′-difluoro[1,1′-biphenyl]-2-yl)cyclopropane-1-carbonyl]azetidin-2-yl}methyl)methanesufonamide] | 94 |
